“And” between values parts separate entries of the source, which are not always exact repeats. Equal values may be shown once.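 Method: 48-hour compound exposure of cells in 96-well plates, five concentrations, linear interpolation of endpoints. Abbreviation: GI50, concentration required for 50% inhibition of growth. TGI is the concentration that stops growth completely.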
Tests used:
Experiment in all cases: DTP human tumour cell line panel, 48 h
M14 melanoma = test system: M14 melanoma
KM12 colon = test system: KM12 colon
SW-620 colon = test system: SW-620 colon
SR leukemia = test system: SR leukemia
SK-MEL-2 melanoma = test system: SK-MEL-2 melanoma
RXF 393 renal = test system: RXF 393 renal
BT-549 breast = test system: BT-549 breast
HCT-116 colon = test system: HCT-116 colon
NCI/ADR-RES ovarian = test system: NCI/ADR-RES ovarian
SF-295 CNS = test system: SF-295 CNS

Compound | TGI (M14 melanoma) | TGI (KM12 colon) | TGI (SW-620 colon) | TGI (SR leukemia) | TGI (SK-MEL-2 melanoma) | TGI (RXF 393 renal) [µM] | TGI (BT-549 breast) | TGI (HCT-116 colon) [µM] | TGI (NCI/ADR-RES ovarian) | TGI (SF-295 CNS) | GI50 (M14 melanoma) [µM] | GI50 (KM12 colon) [µM] | GI50 (SR leukemia) [µM] | GI50 (BT-549 breast) [µM] | GI50 (HCT-116 colon) [µM] | GI50 (NCI/ADR-RES ovarian) [µM] | GI50 (SF-295 CNS) [µM]
COC(CO[Si](C)(C)N[Si](C)(C)OCC(OC)c1ccccc1)c1ccccc1 (stereo unspecified) | > 100 µM | > 100 µM | > 100 µM | > 100 µM | > 100 µM | > 100 | > 100 µM | > 100 | > 100 µM | > 100 µM | – | – | – | – | – | – | –
Cc1cc2nc(N)n[n+]([O-])c2cc1C | > 100 µM | > 100 µM | > 100 µM | > 100 µM | > 100 µM | > 100 | > 100 µM | > 100 | > 100 µM | > 100 µM | – | – | – | – | – | – | –
CCNc1nc2ccccc2nc1NCC | > 100 µM | > 100 µM | > 100 µM | > 100 µM | > 100 µM | > 100 | > 100 µM | > 100 | > 100 µM | > 100 µM | – | – | – | – | – | – | –
c1ccc2c3c(c(N4CCNCC4)nc2c1)CCCC3 | 19 µM | 33.7 µM | 35 µM | > 100 µM | 25.2 µM | 22.7 | 26.9 µM | 27.5 | 27.3 µM | 45.8 µM | – | – | – | – | – | – | –
O=C(NC12CC3CC(CC(C3)C1)C2)n1cnc2cncnc21 | > 100 µM | > 100 µM | > 100 µM | 62.4 µM | 58.4 µM | > 100 | > 100 µM | > 100 | > 100 µM | 67.6 µM | – | – | – | – | – | – | –
O=c1[nH]/c(=C/c2cccs2)c(=O)[nH]/c1=C/c1ccc(OCc2ccccc2)cn1 | 0.0381 µM | 26.3 µM | > 100 µM | 0.587 µM | > 52.2 µM | 3.88 | 3.75 µM | > 100 | 0.475 µM | 0.119 µM | – | – | – | – | – | – | –
Cc1cc([C@H](C#N)c2nc3ccccc3s2)nc(Cl)n1 | 79.2 µM | 9.08 µM | 15.1 µM | > 100 µM | > 100 µM | > 100 | 35.6 µM | 15.3 | 10.8 µM | > 100 µM | – | – | – | – | – | – | –
CCOC(=O)Cn1c(=O)c2cc(C)cc3c(Cl)nc4c(OC)c(OC)cc1c4c32 | > 100 µM | > 100 µM | > 100 µM | > 100 µM | > 100 µM | > 100 | > 100 µM | > 100 | > 100 µM | > 100 µM | – | – | – | – | – | – | –
COC(=O)/C=C1\C(=O)N(C(C)=O)c2ccccc21 | 58.7 µM | 29.2 µM | > 100 µM | > 27.5 µM | 33.5 µM | 21.5 | 27.4 µM | 31.2 | 62.8 µM | > 55.2 µM | – | – | – | – | – | – | –
O=C(O)C(C1NCCS1)N1Cc2ccccc2C1 (stereo unspecified) | > 100 µM | > 100 µM | > 100 µM | > 100 µM | > 100 µM | > 100 | > 100 µM | > 100 | > 100 µM | > 100 µM | – | – | – | – | – | – | –
CN(C)c1ccc(C(=C2C=CC(=[N+](C)C)C=C2)c2c(O)c(S(=O)(=O)[O-])cc3cc(S(=O)(=O)O)ccc23)cc1 | > 100 µM | > 100 µM | > 100 µM | > 100 µM | > 100 µM | > 100 | > 100 µM | > 100 | > 100 µM | > 100 µM | – | – | – | – | – | – | –
Cc1cc(C)c2c(=O)n(CC(O)CN3CCN(c4ncccn4)CC3)sc2n1 (stereo unspecified) | 29.1 µM | 44.6 µM | 60.7 µM | 36.5 µM | 32.7 µM | 33.6 | 32.3 µM | 29 | 78 µM | > 100 µM | – | – | – | – | – | – | –
COc1c(Cl)ccc(Cl)c1-c1nnc(-c2c(Cl)c(Cl)c(Cl)c(Cl)c2-c2nc3ccc(C(=O)c4ccccc4)cc3[nH]2)o1 | > 100 µM | > 100 µM | > 100 µM | > 100 µM | > 100 µM | 65.4 | > 100 µM | > 100 | > 100 µM | 85.7 µM | – | – | – | – | – | – | –
NC1=CN2c3ccccc3N(CC(=O)N3CCOCC3)C2C=C1 (stereo unspecified) | > 100 µM | > 100 µM | > 100 µM | > 100 µM | > 100 µM | > 100 | > 100 µM | > 100 | > 100 µM | > 100 µM | – | – | – | – | – | – | –
O=c1[nH]nc(Nc2ccccc2)c2nnn(Cc3ccccc3)c12 | > 100 µM | > 100 µM | > 100 µM | > 100 µM | > 100 µM | > 100 | > 100 µM | > 100 | > 100 µM | > 100 µM | – | – | – | – | – | – | –
Nc1c2c(nc3ccccc13)-c1ccccc1CCC2 | 25.8 µM | 33.4 µM | 26.2 µM | 11 µM | 28.2 µM | 23.7 | 44.4 µM | 20.2 | 34.3 µM | 19.1 µM | – | – | – | – | – | – | –
NCCCCN(CCCN)C(=O)OCc1ccccc1 | > 100 µM | > 100 µM | > 100 µM | > 100 µM | > 100 µM | > 100 | > 100 µM | > 100 | > 100 µM | > 100 µM | – | – | – | – | – | – | –
Nc1nc(-c2ccccc2)cc(-c2ccc(F)cc2)c1-c1ccc(Cl)cc1 | > 100 µM | > 100 µM | > 100 µM | > 100 µM | > 100 µM | > 100 | > 100 µM | > 100 | > 100 µM | > 100 µM | – | – | – | – | – | – | –
CCOC(=O)C(C(N)=O)c1nc2cc([N+](=O)[O-])ccc2nc1/C=C(\O)c1ccc(C)cc1 (stereo unspecified) | > 100 µM | > 100 µM | > 92.3 µM | 25.9 µM | 48.9 µM | 37.1 | 51.4 µM | 55.4 | 53 µM | 43.6 µM | – | – | – | – | – | – | –
Oc1cccc(-c2cc(=S)ss2)c1 | 37.7 µM | 43 µM | 44.3 µM | 11.9 µM | 30.5 µM | 40.5 | 35.8 µM | 33.3 | 53.7 µM | 29.5 µM | – | – | – | – | – | – | –
CC1CN=C(c2ccc3c(c2)Cc2cc(C4=NCC(C)N4)ccc2-3)N1 (stereo unspecified) | > 100 µM | 56 µM | > 100 µM | > 100 µM | 44.8 µM | > 100 | > 100 µM | > 100 | > 100 µM | > 100 µM | – | – | – | – | – | – | –
CC(=O)Nc1ccc(S(=O)(=O)/N=c2/sc(S(N)(=O)=O)nn2C)cc1 | > 100 µM | > 100 µM | > 100 µM | > 100 µM | > 100 µM | > 100 | > 100 µM | > 100 | > 100 µM | > 100 µM | – | – | – | – | – | – | –
COC(=O)c1ccc2c(c1)CCN2C(=O)c1cc2c(cc1Br)OCO2 | 6.9 µM and 40.4 µM | 50 µM and > 100 µM | 50 µM and > 100 µM | 50 µM and > 100 µM | 5.7 µM and 36.4 µM | 4.72 | 45.5 µM and 5.57 µM | – | 4.79 µM and 0.693 µM | 50 µM and > 100 µM | 0.652 | 0.532 | 0.366 | 0.424 | 0.677 | 0.262 | 0.683
O=C(NCCc1ccc(F)cc1)c1cc(/C=C/c2cc(O)ccc2O)ccc1O | 12.5 µM | 38 µM | > 100 µM | > 30 µM | 7.95 µM | 4.4 | 2.97 µM | 3.94 | 10.7 µM | 36.2 µM | – | – | – | – | – | – | –
c1ccc2c(c1)N=c1ccccc1=P21c2ccccc2Nc2ccccc21 | 5.67 µM | 2.13 µM | 13 µM | 1.75 µM | 0.923 µM | 1.89 | 2.63 µM | 1.76 | > 100 µM | 7.64 µM | – | – | – | – | – | – | –

From PubChem BioAssay (NCI)
